# Measured values: US20110009628A1, “Compounds and Compositions for Modulating Lipid Levels and Methods of Preparing Same” (priority 2009, published 2011)
# How the values were obtained:
# Assay type in all cases: cell-based, human
# [1] = test system: LDLR mRNA expression in HepG2 cells; assay: LDLR mRNA expression in HepG2 cells, quantitative real-time RT-PCR (Example 12); conditions: 24 hours; for fold induction at 10 µM / fold induction at 40 µM: Homo sapiens; for fold induction at 10 µM: read-out: Activity on LDLR mRNA at 10 uM (fold of control); for fold induction at 40 µM: read-out: Activity on LDLR mRNA at 40 uM (fold of control)
# Description: (§1) The effects of compounds on the mRNA expressions of LDLR and PCSK9 were examined using quantitative real-time RT-PCR assays. HepG2 cells were treated with various compounds at 10 and 40 uM concentrations for 24 hours. Total RNA was isolated and […] was used to generate cDNA in a reaction containing random primers and M-MLV at 37° C. for 1 h in a volume of 25 μL. Real-time PCR was performed on the cDNA using MCEP REALPLEX 2 SYSTEM (Eppendorf) and Universal MasterMix (Applied Biosystems). Human LDLR, PCSK9, and GAPDH Pre-Developed TaqMan Assay Reagents (Applied Biosystems) were used to assess the levels of mRNA expressions in HepG2. The levels of LDLR and PCSK9 mRNA were normalized to that of GAPDH. Each RNA samples was assayed in duplicate. The fold activity was calculated by dividing mRNA abundance in compound treated cells with that of control.
# [2] = test system: PCSK9 mRNA expression in HepG2 cells; assay: PCSK9 mRNA expression in HepG2 cells, quantitative real-time RT-PCR (Example 12); conditions: 24 hours
# Description: as §1
# [3] = test system: LDL ligand uptake activity in HepG2 cells; assay: DiI-LDL uptake in HepG2 cells (Example 12)
# Description: The combined beneficial effects of these novel compounds on elevation of LDLR mRNA levels likely through the mechanism of mRNA stabilization and their inhibitory activity towards PCSK9, the secreted protease that degrades LDLR protein, result in strong increases in LDL ligand uptake activity through increased receptor surface abundance. […] Briefly, HepG2 cells (2×10^5 cells/well) in 24-well culture plates were treated with various compounds at 10 and 40 uM concentrations for 20 hours. The fluorescent 1.1′-dioctadecyl-3,3,3′,3′-tetramethylindocarbocyanin perchlorate (DiI-LDL) (Biomedical Technologies, Stoughton, Mass.) at a concentration of 2 μg/ml was added to cells at the end of treatment. After 4 hours, the medium was removed; cells were washed with cold PBS, and were examined immediately under a fluorescent microscope (Nikon) at 200× amplification. The fluorescent intensity in compound-treated cells was compared to that in untreated control cells. […]
# [4] = 10 uM, 20 hours (first symbol of cell)
# [5] = 40 uM, 20 hours (second symbol of cell)
Structure (SMILES),fold induction at 10 µM ([1]; 10 uM),fold induction at 40 µM ([1]; 40 uM),PCSK9 mRNA level at 10 uM (fold of control) [2],Activity on PCSK9 mRNA reduction at 40 uM (fold of control) [2],"Activity in LDL uptake (relative to control) [3, 4]","Activity in LDL uptake (relative to control) [3, 5]",Activity on LDLR mRNA at 10 uM (fold of control) ([1]; 10 uM),Activity on LDLR mRNA at 40 uM (fold of control) ([1]; 40 uM)
"COC(=O)c1cc2c(cc1OC)CCN1Cc3c(ccc(OC)c3OS(=O)(=O)c3ccccc3)CC21 (stereo not shown) [Compound 131, Methyl 3,10-dimethoxy-9-(phenylsulfonyloxy)-5,6,7,8,13,13a-hexahydroisoquinolino[3,2-a]isoquinoline-2-carboxylate]",0.67 ± 0.05,2.25 ± 0.13,0.87 ± 0.04 fold of control,0.72 ± 0.10 fold of control,+/+,+/+,–,–
"COc1ccc2c(c1OS(=O)(=O)c1ccccc1)CN1CCc3cc(OCCO)ccc3C1C2 (stereo not shown) [Compound 142, 3-(2-Hydroxyethoxy)-10-methoxy-5,6,7,8,13,13a-hexahydroisoquinolino[2,1-b]isoquinolin-9-yl benzenesulfonate]",2.64 ± 0.01,13 ± 1.96,0.62 ± 0.07 fold of control,0.52 ± 0.02 fold of control,+,++,–,–
"COc1ccc2c(c1)CCN1Cc3c(ccc(OC)c3OS(=O)(=O)c3cccc(F)c3)CC21 (stereo not shown) [Compound 128, 3,10-Dimethoxy-5,6,7,8,13,13a-hexahydroisoquinolino[2,1-b]isoquinolin-9-yl 3-fluorobenzenesulfonate]",7.52 ± 0.26,13.4 ± 0.46,0.96 ± 0.00 fold of control,0.86 ± 0.029 fold of control,+++/+++,+++/+++,–,–
"COc1cc2c(cc1CO)C1Cc3ccc(OC)c(OS(=O)(=O)c4ccccc4)c3CN1CC2 (stereo not shown) [Compound 132, 2-(Hydroxymethyl)-3,10-dimethoxy-5,6,7,8,13,13a-hexahydro isoquinolino[2,1-b]isoquinolin-9-yl benzenesulfonate]",2.33 ± 0.04,6.62 ± 0.9,1.85 ± 0.12 fold of control,0.73 ± 0.15 fold of control,++,+,–,–
"COc1ccc2c(c1)CCN1Cc3c(ccc(OC)c3OS(=O)(=O)c3ccccc3)CC21 (stereo not shown) [Compound 116, 3,10-Dimethoxy-5,6,7,8,13,13a-hexahydroisoquinolino[2,1-b]isoquinolin-9-yl benzenesulfonate]",1.41 ± 0.04,7.19 ± 1.29,–,–,+++/+++,+++/+++,–,–
"COc1ccc2c(c1OS(=O)(=O)c1cccc(F)c1)CN1CCc3cc4c(cc3C1C2)OCCO4 (stereo not shown) [Compound 129, 11-Methoxy-6,7,8,9,14,14a-hexahydro-2H,3H-1,4-dioxano[5,6-g]isoquinolino[3,2-a]isoquinolin-10-yl 3-fluorobenzenesulfonate]",2.49 ± 0.18,1.99 ± 0.13,1.57 ± 0.07 fold of control,1.68 ± 0.41 fold of control,+,++,–,–
"COc1ccc2c(c1OS(=O)(=O)c1ccccc1)CN1CCc3cc4c(cc3C1C2)OCCO4 (stereo not shown) [Compound 115, 11-Methoxy-6,7,8,9,14,14a-hexahydro-2H,3H-1,4-dioxano[5,6-g]isoquinolino[3,2-a]isoquinolin-10-yl benzenesulfonate]",–,–,–,–,–,+++,0.51 ± 0.11 fold of control,2.65 ± 0.06 fold of control
"COc1ccc2c(c1OS(=O)(=O)c1ccccc1)CN1CCc3ccccc3C1C2 (stereo not shown) [Compound 134, 10-Methoxy-5,6,7,8,13,13a-hexahydroisoquinolino[2,1-b]isoquinolin-9-yl benzenesulfonate]",1.41 ± 0.07,6.23 ± 0.64,1.25 ± 0.03 fold of control,0.86 ± 0.02 fold of control,–,+,–,–
"COc1ccc2c(c1OS(=O)(=O)c1ccccc1)CN1CCc3cc(C)ccc3C1C2 (stereo not shown) [Compound 121, 10-Methoxy-3-methyl-5,6,7,8,13,13a-hexahydroisoquinolino[2,1-b]isoquinolin-9-yl benzenesulfonate]",3.56 ± 0.03,3.43 ± 0.81,–,–,+++,+,–,–
"COc1ccc2c(c1)CCN1Cc3c(ccc(OC)c3OS(=O)(=O)c3ccccc3)C(C)C21 (stereo not shown) [Compound 140, 3,10-Dimethoxy-13-methyl-5,6,7,8,13,13a-hexahydro isoquinolino[2,1-b]isoquinolin-9-yl benzenesulfonate]",6.65 ± 0.68,8.6 ± 2,0.43 ± 0.08 fold of control,0.51 ± 0.08 fold of control,++/++,++/++,–,–
"CCOc1ccc2c(c1)CCN1Cc3c(ccc(OC)c3OS(=O)(=O)c3ccccc3)CC21 (stereo not shown) [Compound 133, 3-Ethoxy-10-methoxy-5,6,7,8,13,13a-hexahydroisoquinolino[2,1-b]isoquinolin-9-yl benzenesulfonate]",4.92,6.61 ± 0.16,1.04 ± 0.08 fold of control,0.49 ± 0.01 fold of control,++,+,–,–
"COc1ccc2c(c1)CCN1Cc3c(OS(=O)(=O)c4cccc(F)c4)ccc(Br)c3CC21 (stereo not shown) [Compound 149, 12-bromo-3-methoxy-5,6,7,8,13,13a-hexahydroisoquinolino[2,1-b]isoquinolin-9-yl 3-fluorobenzenesulfonate]",–,–,–,–,+/+,+/+,–,–
"COc1cc2c(cc1C(=O)NCCO)C1Cc3ccc(OC)c(OS(=O)(=O)c4ccccc4)c3CN1CC2 (stereo not shown) [Compound 137, 2-[N-(2-hydroxyethyl)carbamoyl]-3,10-dimethoxy-5,6,7,8,13,13a-hexahydroisoquinolino[2,1-b]isoquinolin-9-yl benzenesulfonate]",1.61 ± 0.19,2.66 ± 0.04,0.45 ± 0.06 fold of control,0.34 ± 0.00 fold of control,+,+++,–,–
"COc1cc2c(cc1C(=O)N(C)C)C1Cc3ccc(OC)c(OS(=O)(=O)c4ccccc4)c3CN1CC2 (stereo not shown) [Compound 136, 2-(N,N-dimethylcarbamoyl)-3,10-dimethoxy-5,6,7,8,13,13a-hexahydroisoquinolino[2,1-b]isoquinolin-9-yl benzenesulfonate]",0.91 ± 0.05,1.92 ± 0.32,0.48 ± 0.03 fold of control,0.62 ± 0.02 fold of control,+,++,–,–
"COc1ccc2c(c1)CCN1Cc3c(O)cccc3CC21 (stereo not shown) [Compound 151, 3-methoxy-5,6,7,8,13,13a-hexahydroisoquinolino[2,1-b]isoquinolin-9-ol]",–,–,–,–,–,+,–,–
"COc1ccc2c(c1)CCN1Cc3c(cccc3OS(=O)(=O)c3cccc(F)c3)CC21 (stereo not shown) [Compound 150, 3-methoxy-5,6,7,8,13,13a-hexahydroisoquinolino[2,1-b]isoquinolin-9-yl 3-fluorobenzenesulfonate]",–,–,–,–,+,++,–,–
"COc1cc2c(cc1OCC(=O)O)C1Cc3ccc(OC)c(OS(=O)(=O)c4ccccc4)c3CN1CC2 (stereo not shown) [Compound 144, 2-[3,10-dimethoxy-9-(phenylsulfonyloxy)-5,6,7,8,13,13a-hexahydroisoquinolino[3,2-a]isoquinolin-2-yloxy]acetic acid]",1.02 ± 0.09,2.69 ± 0.31,0.99 ± 0.09 fold of control,1.84 ± 0.15 fold of control,–,–,–,–
